Tests used:
[1] = target: T1, BrlR-C2E mut2 (R67A/R86A) (Pseudomonas aeruginosa, UniProt Q9HUT5, R67A/R86A); assay: FP binding assay, BrlR-C2E mut2
T1 construct: His6-SUMO (N, cleaved yes); made in house; host or cells: E. coli BL21 DE3
Procedure: (§1) F-c-di-GMP and F-c-di-AMP both contain a fluorophore at one of the 2′-ribose hydroxyls of c-di-GMP and c-di-AMP, respectively (Fig. 2f). To measure the binding of c-di-GMP and c-di-AMP to BrlR variants, 1 nM F-c-di-GMP or F-c-di-AMP was incubated with increasing amounts of indicated BrlR WT, BrlR mutation, or BrlR-C in reaction buffer (25 mM HEPES, 100 mM NaCl, pH 7.5) at 25 °C for 20 min. 1 nM fluorescein was incubated with BrlR WT in the same reaction buffer at 25 °C. FP measurements were conducted on a Synergy 4 Microplate Reader (BioTek) at 25 °C. All experiments were performed in triplicate. The curves were fitted to deduce binding affinities by GraphPad Prism 5.
(§2) BrlR–c-di-GMPs interactions in two separate c-di-GMP binding sites
(§3) In the first binding site, c-di-GMP is half accommodated by the antiparallel β-sheet and two residues (M1 and D35). In detail, the backbone amide protons of the first M1 residue form a hydrogen bond (H-bond) with the phosphate oxygen atom of c-di-GMP, and the side chain of R31 forms two H-bonds with the Gua1 base. The residue D35 also forms an H-bond with the Gua1 base. The aromatic ring of Y40 interacts with the Gua1 base through a hydrophobic π-π interaction. In addition, the hydroxyl group of the Y270 side chain from another subunit interacts with the phosphate 2 of c-di-GMP via an H-bond (Fig. 2d). […]

BrlR [2] = target: T2, BrlR (Pseudomonas aeruginosa, UniProt Q9HUT5); assay: Fluorescence polarization (FP) binding assay, wild-type BrlR; details: 1 nM fluorescent ligand, 25 °C
T2 construct: His6-SUMO (N, cleaved yes); made in house; host or cells: E. coli BL21 DE3
Source text: The most striking feature of the BrlR–c-di-GMP complex is the c-di-GMP-binding mode. The DNA-binding domain contains two separate c-di-GMP-binding sites, and shares a mutually intercalated c-di-GMP dimer in a stacking conformation with a crystallographic symmetry related binding site (Fig. 2a–c). […] The interactions stabilizing the c-di-GMPs are different for the two binding sites (Fig. 2d, e, and details are described in Supplementary Note 1). […] This structural feature allows us to perform fluorescence polarization (FP)-based binding assays[19],[23],[24] by using a fluoresceinated c-di-GMP analog, 2′-Fluo-AHC-c-di-GMP (F-c-di-GMP), containing a fluorophore attached to one of the 2′-ribose hydroxyls (Fig. 2f).
as §1

[3] = target: T3, BrlR-C2E mut1 (R31A/D35A/Y40A/Y270A) (Pseudomonas aeruginosa, UniProt Q9HUT5, D35A/R31A/Y270A/Y40A); assay: FP binding assay, BrlR-C2E mut1
T3 construct: His6-SUMO (N, cleaved yes); made in house; host or cells: E. coli BL21 DE3
Procedure: as §1, §2, §3

BrlR-C = target: T4, BrlR-C (Pseudomonas aeruginosa, UniProt Q9HUT5); assay: FP competition experiment, BrlR-C; assay type: binding; details: 550 μM BrlR-C, 1 nM F-c-di-GMP
T4 construct: His6 (cleaved yes); made in house; host or cells: E. coli (same protocol as BrlR, induction at 18 °C)
Procedure: Supplementary Figure 11: FP analyses of F-c-di-GMP binding to BrlR-C. (a) Isotherms of BrlR-C binding to F-c-di-GMP. The binding experiment was carried out at 25 °C in a buffer containing 150 mM NaCl, 25 mM Tris·HCl (pH 7.5), and 1 nM F-c-di-GMP. Increasing concentrations of BrlR-C were titrated into the reaction mixture to obtain the binding isotherms. (b) Fluorescence polarization competition experiment of BrlR-C. As a control, 550 μM BrlR-C was added to the reaction tube containing 1 nM F-c-di-GMP, and different competitors were respectively added in the solution and the values of millipolarization were recorded.
(1 picture or pasted object on this page, not shown here)

BrlR-C domain = target: T5, BrlR-C domain (Pseudomonas aeruginosa, UniProt Q9HUT5); assay: Native gel staining with EB; assay type: binding
T5 construct: His6 (cleaved yes); made in house; host or cells: E. coli (same protocol as BrlR, induction at 18 °C)
Source text: Fig. 5 The BrlR-C domain can bind to diverse toxic compounds with two adjacent binding pockets. a Structural superpositions of BrlR-C and RH6G-bound SAV2435 (PDB code: 5KAU). The residues in contact with the ligand are shown as stick models and are labeled. Electron density (2Fo - Fc map) for imidazole (blue mesh) binding to the BrlR–c-di-GMP complex is contoured at the 1σ level. b The chemical structures of toxic compounds. c FP analyses of the fluorescein binding to BrlR. The binding curves were fit to deduce the binding affinities. d Two μg of BrlR variants were run on the native gel and stained with EB; the scan results are shown in the upper panel. The proteins were visualized by staining with Coomassie blue in the lower panel. e SPR sensorgram and the resulting affinity fit for pyocyanin binding to BrlR. The ligand binding and dissociation phases for all sensorgrams are shown in the upper panel. The concentrations of a pyocyanin are indicated. The binding responses were measured for 4 s before the end of the injection, and the KD values were calculated using the BIAevaluation software in the lower panel. f The monomeric structure of BrlR-C-3A2P complex. 3A2P, PEG and the conserved residues are shown in stick mode. […]
of multidrug inducers in their C-terminal multidrug-binding domains1-3. […]
However, much more dimers than tetramers were detected (Supplementary Fig. 13a). […]

BrlR [4] = target: T2, BrlR; details: ref 1 (Chambers et al., 2014) of response letter; cited from earlier work
BrlR [5] = target: T6, BrlR (UniProt Q9HUT5 1-270); assay: EMSA; details: protein: recombinant; tags: none (His6-SUMO removed); chain copies: 4; label: 5' FAM on strand 1; blunt
T6 sequence: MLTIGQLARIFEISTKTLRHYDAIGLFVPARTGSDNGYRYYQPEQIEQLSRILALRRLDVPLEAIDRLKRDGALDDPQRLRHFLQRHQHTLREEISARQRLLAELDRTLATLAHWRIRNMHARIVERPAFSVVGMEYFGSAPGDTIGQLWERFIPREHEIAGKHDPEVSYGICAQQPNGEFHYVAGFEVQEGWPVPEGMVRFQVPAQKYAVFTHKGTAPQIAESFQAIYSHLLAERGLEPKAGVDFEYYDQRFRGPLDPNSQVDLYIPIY

BrlR C2E mut1 = target: T7, BrlR C2E mut1 (UniProt Q9HUT5 1-270, R31A;D35A;Y40A;Y270A); assay: EMSA; c-di-GMP (increased); details: protein: recombinant; tags: none (His6-SUMO removed); chain copies: 2; label: 5' FAM on strand 1; blunt
T7 sequence: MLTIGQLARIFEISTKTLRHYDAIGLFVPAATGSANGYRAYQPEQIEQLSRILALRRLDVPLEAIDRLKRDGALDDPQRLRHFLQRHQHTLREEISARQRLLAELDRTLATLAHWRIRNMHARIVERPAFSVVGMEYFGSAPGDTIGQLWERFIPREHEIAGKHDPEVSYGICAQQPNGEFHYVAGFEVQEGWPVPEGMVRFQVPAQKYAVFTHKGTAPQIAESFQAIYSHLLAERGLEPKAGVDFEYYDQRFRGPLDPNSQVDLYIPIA

BrlR C2E mut2 = target: T8, BrlR C2E mut2 (UniProt Q9HUT5 1-270, R67A;R86A); assay: EMSA; c-di-GMP (increased); details: protein: recombinant; tags: none (His6-SUMO removed); chain copies: 2; label: 5' FAM on strand 1; blunt
T8 sequence: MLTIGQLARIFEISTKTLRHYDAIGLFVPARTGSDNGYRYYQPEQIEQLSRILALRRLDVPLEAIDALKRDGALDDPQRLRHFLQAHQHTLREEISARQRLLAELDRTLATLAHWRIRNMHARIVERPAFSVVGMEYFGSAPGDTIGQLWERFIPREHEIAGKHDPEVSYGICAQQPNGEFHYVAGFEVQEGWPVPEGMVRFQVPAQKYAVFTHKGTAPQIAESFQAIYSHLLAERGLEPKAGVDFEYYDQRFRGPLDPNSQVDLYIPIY

2′-fluo-AHC-c-di-AMP [F-c-di-AMP]
Kd [1]: 10.3 ± 0.2 µM
Kd (BrlR [2]): 12.9 ± 0.7 µM
Kd (BrlR [2]; listed as 2′-fluo-AHC-c-di-AMP): 12.9 ± 0.65 µM
Kd [3]: 63.7 ± 5.1 µM

CC[n+]1c(-c2ccccc2)c2cc(N)ccc2c2ccc(N)cc21 [EB, ethidium bromide]
competition with F-c-di-GMP binding to BrlR-C (BrlR-C): outcompeted
staining of protein in native gel (BrlR-C domain): readily stained

Nc1nc2c(ncn2[C@@H]2O[C@H](COP(=O)(O)OP(=O)(O)OP(=O)(O)O)[C@@H](O)[C@H]2O)c(=O)[nH]1 [GTP]
effect on binding of c-di-GMP to BrlR (BrlR [4]): not affected

B1: PbrlR 36-bp (dsDNA)
DNA 1: ACCCCTTGACCTTGCCCCAGGGGCAATCCGTAGTCT
DNA 2: AGACTACGGATTGCCCCTGGGGCAAGGTCAAGGGGT
binding result (BrlR [5]): binds
binding result (BrlR C2E mut1): binds
binding result (BrlR C2E mut2): binds

Reference: PMC6028453, “BrlR from Pseudomonas aeruginosa is a receptor for both cyclic di-GMP and pyocyanin” (Nature Communications, 2018)
